Patent publication US8334316B2, “Substituted organosulfur compounds and methods of using thereof” (ACEA Biosciences, Inc., priority 2004, dated 2012)
Values joined by “and” are separate entries in the source; they are usually repeats but may differ in a detail not shown here. Identical values can stand only once. Marks after values point to notes of the source that are not given here.

What was measured:
[1] = tested on: HCT-8 human colon cancer; assay: HCT-8 human colon cancer xenograft in nude mice (Example 3); format: in vivo; details: for tumor inhibition rate %: vs solvent control
Source text: Both male and female mice were used. […] Test control. […] Preparation and Administration of Test Compounds. […] For human tumor xenograft model, all used materials, including animal food, animal cage, supporting materials and apparatus contacted by animals, were high-pressure sterilized. Nude mice were maintained in laminar flow shelves under SPF condition. After tumor transplantation, mouse weight and tumor size in each compound dosage group were dynamically monitored and plotted.

[2] = tested on: ao10/17 human ovarian cancer; assay: ao10/17 human ovarian cancer xenograft in nude mice (Example 4); format: in vivo; details: for tumor inhibition rate %: vs solvent control
Procedure: Only female mice were used in this study. […] The high, middle and low doses of ACEA100108 were 50, […] and 8 mg/kg/d, respectively.
Preparation and Administration of Test Compounds. […] The high, middle and low dose of compound ACEA100108 was 50, 20 and 8 mg/kg, respectively.
The tumor tissues were grounded in normal saline (1:6 for tumor volume to saline volume) and tumor cell suspensions were prepared in the normal saline.
For the human ovarian cancer xenograft model, all used materials, including animal food, animal cage, supporting materials and apparatus contacted by animals, were high-pressure sterilized. Nude mice were maintained in laminar flow shelves under SPF condition. After tumor transplantation, mouse weight and tumor size in each compound dosage group were dynamically monitored and plotted. The tumor size was determined by measuring the major axis (a) and minor axis (b) of the tumor, and tumor volume was calculated according to the equation (3) in Example 3.

[3] = tested on: microtubules in COS cells; assay: Microtubule network in cultured COS cells (anti-tubulin immunofluorescence, confocal microscopy); format: cell-based
Procedure: Cell Culture and Immunocytochemistry. COS cells were grown in DMEM media supplemented with non-essential amino acids, 10% FBS, antibiotic-antimycotic (Gibco BRL) at 37° C. and 5.5% CO2. […] Cells were then rinsed once with warm PBS, fixed with cold methanol, rinsed again in PBS and blocked overnight at 4° C. in PBT (PBS, 1% BSA, 0.5% Triton X-100). All subsequent stains and washes were done in PBT at room temperature unless stated otherwise. Cells were stained with the anti-tubulin mouse antibody DM-1 at 1:1000 for 1 hour, washed four times for 15 minutes each and then treated with Cy-3 conjugated goat anti mouse antibody at 1:100 for 1 hour in the dark. Next, samples were washed four times for 15 minutes each in PBT in the dark followed by a final 15 minute wash in PBS in the dark. Samples were then viewed by laser scanning confocal microscopy.

[4] = tested on: mouse Lewis lung cancer; assay: In vivo antitumor efficacy, mouse Lewis lung cancer model, Example 3 (ACEA100108); details: for Inhibition rate (%): vs solvent control
Procedure: For human tumor xenograft models, cancer cells were passed twice in vivo before being transplanted into the nude mice for the study. Cultured human cancer cells in flask were first xenograft-transplanted in immunodeficient nude mice. After the cancer cells grew to a tumor of certain sizes in the nude mice, the tumor was removed form the nude mice and tumor tissues were dissected. The cell suspensions were prepared from the dissected tumor tissue and transplanted back to immunodeficient nude mice again (i.e. the second passage of cancer cells in human cancer xenograft-transplanted model). After the cancer cells grew to certain size, the tumor was removed from nude mice and the tumor tissues were dissected. The cell suspensions were prepared from dissected tissues and were used for the study of human cancer xenograft models described here.
Both male and female mice were used. However, for each experiment, animals of same sex were used. For the mouse transplanted tumor model, the numbers of animals tested were as follows: 10 for each dose group, 10 for positive control group and 20 for negative control group. For human tumor xenograft model, the numbers of animals tested were as follows: 6 for each dose group, 6 for positive control group and 12 for negative control group.
Test control. For negative control, each mouse was administered intravenously with the solvent only having the same volume and same concentration as those used in high dose ACEA100108 test, once a day, for 7 consecutive days. […] In a reference group, DBTS was administered intravenously at 50 mg/kg, once a day for 7 consecutive days.
Preparation and Administration of Test Compounds. […] Each time before use, this solution was diluted in normal saline to achieve desired ACEA100108 concentrations. Each mouse (about 20 g in weight) was administered intravenously with the compound solution of 0.5 mL at a controlled injection speed of 0.5 ml/0.5 min. 24 hrs after the tumor transplantation, intravenous injections of compound solutions into carrier mice were performed once a day, for consecutive 7 or 10 days.
Preparation of Tumor Cells for Transplantation and Determination of Compound Efficacy. To prepare the cancer cells for mouse Lewis lung cancer model, human breast cancer xenograft model and human colon cancer xenograft model, the fast growing tumors were first removed from the transplanted tumor mice. The tumor tissues were dissected and tumor cell suspensions were prepared in normal saline to have a concentration of 2-4×10^7 cells/ml. 0.2 ml of cell suspension was subcutaneously injected into the axillary region (right-side) of each mouse. […] Between two and four weeks after transplantation, mice were sacrificed and the transplanted tumors were removed from experimental mice.

[5] = 20 mg/kg/d iv x7 qd, 25 d (end)
[6] = 50 mg/kg/d iv x7 qd, 7 day after transplantation
[7] = 50 mg/kg/d iv x7 qd, 25 d (end)
[8] = 8 mg/kg iv x7 qd, 7 D after transplantation
[9] = 20 mg/kg iv x7 qd, 7 D after transplantation
[10] = 50 mg/kg iv x7 qd, 7 D after transplantation

Fc1ccc(CSSSCc2ccc(F)cc2)cc1 [ACEA100108, Di(p-fluorobenzyl)trisulfide]
Tumor volume (cm^3) ([1]; 20 mg/kg/d iv x7 qd, 21 d): 0.317 ± 0.05 cm^3 | Mouse Body weight [1, 5]: 22.5 g and 22.5 ± 1 g | Tumor volume (cm^3) [1, 5]: 0.654 cm^3 and 0.654 ± 0.09 cm^3 | tumor inhibition rate % ([1]; 20 mg/kg/d iv x7 qd): 28.10% | TV inhibition rate % T/C ([1]; 50 mg/kg/d iv x7 qd): 33.63% | Tumor weight ([1]; 50 mg/kg/d iv x7 qd): 0.832 ± 0.10 g | Mouse Body weight ([1]; 50 mg/kg/d iv x7 qd, 0 Day (beginning)): 18.3 g and 18.3 ± 1 g | Mouse Body weight ([1]; 50 mg/kg/d iv x7 qd, 7 d): 17.7 ± 1.2 g | Mice with palpable tumor / total mice [1, 6]: 6/6†† | Tumor volume (cm^3) [1, 6]: 0.01 cm^3 | Mouse Body weight ([1]; 50 mg/kg/d iv x7 qd, 14 d): 17.8 ± 2.3 g | Tumor volume (cm^3) ([1]; 50 mg/kg/d iv x7 qd, 14 d): 0.112 ± 0.02 cm^3 | Mouse Body weight ([1]; 50 mg/kg/d iv x7 qd, 21 d): 19.5 ± 1.6 g | Tumor volume (cm^3) ([1]; 50 mg/kg/d iv x7 qd, 21 d): 0.236 ± 0.02 cm^3 | Mouse Body weight [1, 7]: 20.3 g and 20.3 ± 1 g | Tumor volume (cm^3) [1, 7]: 0.525 cm^3 and 0.525 ± 0.14 cm^3 | tumor inhibition rate % ([1]; 50 mg/kg/d iv x7 qd): 45.62% | Body weight of mice ([2]; 8 mg/kg iv x7 qd, 0 d (beginning)): 17.7 g and 17.7 ± 0.5 g | Mice with palpable tumor / total mice [2, 8]: 3/6 | Tumor volume (cm^3) [2, 8]: 0.01 cm^3 | Body weight of mice ([2]; 8 mg/kg iv x7 qd, 7 d): 19 ± 0.6 g | Body weight of mice ([2]; 8 mg/kg iv x7 qd, 14 d): 20.5 ± 1 g | Tumor volume (cm^3) ([2]; 8 mg/kg iv x7 qd, 14 d): 0.048 ± 0.03 cm^3 | Body weight of mice ([2]; 8 mg/kg iv x7 qd, 21 d): 21.2 ± 0.8 g | Tumor volume (cm^3) ([2]; 8 mg/kg iv x7 qd, 21 d): 0.249 ± 0.05 cm^3 | Tumor volume (cm^3) ([2]; 8 mg/kg iv x7 qd, 24 d): 0.89 ± 0.39 cm^3 | Body weight of mice ([2]; 8 mg/kg iv x7 qd, 24 d (end)): 22.2 g and 22.2 ± 0.8 g | Tumor weight ([2]; 8 mg/kg/d iv x7 qd): 0.942 ± 0.14 g | tumor inhibition rate % ([2]; 8 mg/kg/d iv x7 qd): 33.19% | Mice with palpable tumor / total mice [2, 9]: 2/6 | Tumor volume (cm^3) [2, 9]: 0.01 cm^3 | Body weight of mice ([2]; 20 mg/kg iv x7 qd, 7 d): 18.3 ± 0.8 g | Body weight of mice ([2]; 20 mg/kg iv x7 qd, 14 d): 19.8 ± 0.8 g | Tumor volume (cm^3) ([2]; 20 mg/kg iv x7 qd, 14 d): 0.03 ± 0.02 cm^3 | Body weight of mice ([2]; 20 mg/kg iv x7 qd, 21 d): 20.5 ± 1 g | Tumor volume (cm^3) ([2]; 20 mg/kg iv x7 qd, 21 d): 0.206 ± 0.03 cm^3 | Tumor volume (cm^3) ([2]; 20 mg/kg iv x7 qd, 24 d): 0.402 ± 0.1 cm^3 | Body weight of mice ([2]; 20 mg/kg iv x7 qd, 24 d (end)): 22.0 g and 22.0 ± 1.4 g | Tumor weight ([2]; 20 mg/kg/d iv x7 qd): 0.752 ± 0.12 g | tumor inhibition rate % ([2]; 20 mg/kg/d iv x7 qd): 46.67% | Body weight of mice ([2]; 50 mg/kg iv x7 qd, 0 d (beginning)): 17.2 g and 17.2 ± 0.8 g | Mice with palpable tumor / total mice [2, 10]: 1/6 | Tumor volume (cm^3) [2, 10]: 0.01 cm^3 | Body weight of mice ([2]; 50 mg/kg iv x7 qd, 7 d): 16.7 ± 0.8 g | Body weight of mice ([2]; 50 mg/kg iv x7 qd, 14 d): 17.8 ± 1.5 g | Mice with palpable tumor / total mice ([2]; 50 mg/kg iv x7 qd, 14 d): 6/6 | Tumor volume (cm^3) ([2]; 50 mg/kg iv x7 qd, 14 d): 0.01 cm^3 | Body weight of mice ([2]; 50 mg/kg iv x7 qd, 21 d): 19.3 ± 1 g | Tumor volume (cm^3) ([2]; 50 mg/kg iv x7 qd, 21 d): 0.148 ± 0.02 cm^3 | Tumor volume (cm^3) ([2]; 50 mg/kg iv x7 qd, 24 d): 0.316 ± 0.06 cm^3 | Body weight of mice ([2]; 50 mg/kg iv x7 qd, 24 d (end)): 21.3 g and 21.3 ± 1.2 g | Tumor weight ([2]; 50 mg/kg/d iv x7 qd): 0.657 ± 0.13 g | tumor inhibition rate % ([2]; 50 mg/kg/d iv x7 qd): 53.40% | Microtubule network appearance ([3]; 4 hours exposure): the microtubule network is markedly altered at all concentrations tested | Microtubule network appearance ([3]; 24 hours, 1 uM and 3 uM): appear relatively normal | Microtubule network appearance ([3]; 24 hours, 9 uM): the microtubules appear short and the network is abnormal | Animal No. beginning/end (survival) ([4]; 6.25 mg/kg/d iv x7 qd): 10/10 | Animal weight (g) beginning ([4]; 6.25 mg/kg/d iv x7 qd): 20.3 g | Animal weight (g) end ([4]; 6.25 mg/kg/d iv x7 qd): 24.4 g | Tumor weight ([4]; 6.25 mg/kg/d iv x7 qd): 1.78 ± 0.24 g | Inhibition rate (%) ([4]; 6.25 mg/kg/d iv x7 qd): 34.32% | Animal No. beginning/end (survival) ([4]; 25 mg/kg/d iv x7 qd): 10/10 | Animal weight (g) beginning ([4]; 25 mg/kg/d iv x7 qd): 20.1 g | Animal weight (g) end ([4]; 25 mg/kg/d iv x7 qd): 24.2 g | Tumor weight ([4]; 25 mg/kg/d iv x7 qd): 1.21 ± 0.22 g | Inhibition rate (%) ([4]; 25 mg/kg/d iv x7 qd): 55.35% | Animal No. beginning/end (survival) ([4]; 100 mg/kg/d iv x7 qd): 10/8 | Animal weight (g) beginning ([4]; 100 mg/kg/d iv x7 qd): 20.6 g | Animal weight (g) end ([4]; 100 mg/kg/d iv x7 qd): 23.4 g | Tumor weight ([4]; 100 mg/kg/d iv x7 qd (text: administered only 5 times because of toxicity)): 1.08 ± 0.17 g | Inhibition rate (%) ([4]; 100 mg/kg/d iv x7 qd (text: only 5 times because of toxicity)): 60.15%
